Data: US20230416258A1, “BENZ[…], AND PREPARATION METHOD THEREFOR AND USE THEREOF” (CHINA PHARMACEUTICAL UNIVERSITY, priority 2020, published 2023)

Tests used:
[1] = In vitro plasma half-life of drug; type: in vitro ADME, SD rats; details: plasma (heparin sodium); SD rat plasma, 37° C.
Description: Preparation of plasma: after the SD rats were fasted and kept with water for 12 h, blood was collected through orbital venous plexus. The freshly collected blood was added into a centrifuge tube containing heparin sodium and centrifuged at 5000 rpm for 10 min at 4° C. The supernatant was slowly pipetted and subpackaged. Finally, the collected SD rat plasma was sealed, marked, and stored at −20° C. for later use.
Preparation of target compound sample: the target compound was precisely weighed by an analytical balance and prepared into a stock solution at a concentration of 2 mg/mL (solvent: Vacetone:VTween 80:Vnormal saline=1:1:3) for later use.
Determination of in vitro half-life of target compound sample: 20 μL of test compound stock solution and 80 μL of rat plasma were mixed uniformly. Nine parallel ep tubes were taken, marked as corresponding test tubes of 0 min, 1 min, 2 min, 3 min, 5 min, 10 min, 15 min, 20 min, and 30 min, respectively, and placed in a water bath at 37° C. for incubation for 0 min, 1 min, 2 min, 3 min, 5 min, 10 min, 15 min, 20 min, and 30 min, respectively. 50 μL of mixed solution were taken from the corresponding ep tube at each time point, and […] of acetonitrile was added for precipitating protein. The mixture was vortexed for 10 min using a mixer and centrifuged at 12000 rpm for 15 min. Then, the supernatant was centrifuged at 12000 rpm for 10 min. The optimal detection method for the target compound in the MRM mode was determined using Intellistat software in UPLC-MS/MS, the peak area of the corresponding mass spectrum was integrated, and the plasma half-life of the compound was calculated.

hCMEC/D3 cells = assay: Rate of drug passing through in vitro blood-brain barrier (Transwell); type: in vitro ADME; details: hCMEC/D3 monolayer, compound 0.1 mg/mL
Description: A Transwell device (pore size: 5.0 μm) was placed in a 24-well cell culture well; then hCMEC/D3 cells at 1×10^5 cells/mL were transferred to the upper microwells of Transwell at 150 μL/well, and cell culture medium was added to the lower microwells. After the bottom was covered by a single layer of the cells, the medium in the wells was replaced with EBM-2 complete medium containing 1% FBS, and the cells were cultured in a CO2 incubator for 10 days until a fully dense single layer of the cells was formed. When a fully dense single layer of the cells was formed, the compound at 0.1 mg/mL was added to the lower medium, and after 5 min, the concentration of the compound in the upper medium was measured to calculate the permeability:
Pcompound%=Cupper compound/Clower compound×100%

SD rats [2] = assay: Test for drug-induced disappearance of righting reflex in rats; type: in vivo; details: single rapid bolus via tail vein
Source text: In anesthetic drug experiments, latency generally refers to the time from the start of administration to the loss of consciousness of the subject. The shorter latency is preferred, indicating a rapid onset of action after administration. The duration of anesthesia generally refers to the duration of time from the loss of consciousness to the restoration of consciousness of the subject. The duration of the drug will vary from animal model to animal species. Too long anesthesia may produce adverse cardiovascular and respiratory responses, such as adverse neurological effects to the subject, including sleepiness and dizziness; meanwhile, too short duration of anesthesia may affect the anesthesia effect, causing problems such as increase of anesthesia dosage during the operation.
SD rats (male, 200-280 g) were randomly grouped and subjected to a single administration by rapid bolus via the tail vein. The latency and duration of righting reflex in the rats were recorded.

KM mice = assay: Test for drug-induced disappearance of righting reflex in mice; type: in vivo; details: single rapid bolus via tail vein
Outline: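 Latency to, and duration of, righting reflex loss were recorded after one fast tail-vein bolus. Animals: randomized female KM mice weighing 18–25 g.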

[3] = test system: GABA-activated Cl− current (GABAA receptor) in HEK 293T cells; assay: Effect of drugs on GABA-activated current in cells by cell patch clamp; type: cell-based; details: for EC50: read-out: Positive enhancement EC50 (μM) for 2 μM GABA-induced current, −60 mV; for Enhancement percentage Emax for 2 μM GABA current (within 3-30 μM): −60 mV, corresponding concentration 20 μM
Description: Test compounds were dissolved at various concentrations in an extracellular buffer (140 mM NaCl, 4.7 mM KCl, 10 mM HEPES, 2 mM CaCl2), 10 mM glucose, 1 mM MgCl2, pH 7.4). HEK 293T cells were seeded on glass coverslips and cultured in DMEM media at 37° C. with 5% CO2 for 24 h. GABA Cl^− current was subjected to whole cell recording using an HEKA EPC 10USB patch clamp amplifier. 2 μM GABA was used for exciting Cl^− current, with the membrane potential clamped at −60 mV. The cells were treated with the test compound and 2 μM GABA simultaneously, and the induction effect on and Emax of Cl^− current in the same cell were recorded.
Maximum enhancement percentage Emax for 2 μM GABA current and corresponding concentration (μM): 100% for normal humans. The greater the percentage, the lower the corresponding concentration, and the greater the depth of anesthesia.

SD rats [4] = assay: Induction of anesthesia in rats by continuous infusion of drug for 20 min; type: in vivo; details: initial dose 20 mg/kg bolus, maintenance dose 0.2 (mg/kg)/min for 20 min, after infusion completed
Description: SD rats (male, 200-280 g) were randomly grouped and subjected to administration of an initial dose by rapid bolus via the tail vein, followed by a continuous infusion with a maintenance dose for 20 min.
After the infusion was completed, the duration of the righting reflex and the time from wake-up to recovery in rats were recorded.

| Compound | half-life at 0.4 mg/mL [1] [s] | In vitro blood-brain barrier, compound permeability at 5 min (hCMEC/D3 cells) [%] | Latency (SD rats [2]) [min] | Duration (KM mice; 60 mg/kg) [min] | Latency (KM mice; 60 mg/kg) [min] | EC50 [3] [µM] | Enhancement percentage Emax for 2 μM GABA current (within 3-30 μM) [3] | Duration of anesthesia (SD rats [4]) [min] | Time from wake-up to recovery (SD rats [4]) [min] | Duration (KM mice; 30 mg/kg) [min] | Latency (KM mice; 30 mg/kg) [min] |
| --- | --- | --- | --- | --- | --- | --- | --- | --- | --- | --- | --- |
| COC(=O)CC[C@@H]1N=C(c2ccccc2Cl)c2cc(Cl)ccc2-n2c(SCCN)nnc21 [Compound 35, methyl (S)-3-(8-chloro-6-(2-chlorophenyl)-1-((2-aminoethyl)thio)-4H-benzo[f][1,2,4]triazolo[4,3-a][1,4]diazepin-4-yl)propionate] | 12.6 | 84.6 | 0.25 | 40.26 | 0.18 | 0.36 | 318% (20 μM) | 51.3 | 33.8 | – | – |
| COC(=O)CC[C@@H]1N=C(c2ccccc2Cl)c2cc(Br)ccc2-n2c(SCCN)nnc21 [Compound 36, methyl (S)-3-(8-bromo-6-(2-chlorophenyl)-1-((2-aminoethyl)thio)-4H-benzo[f][1,2,4]triazolo[4,3-a][1,4]diazepin-4-yl)propionate] | 34.2 | 71.6 | 0.28 | 8.82 | 0.34 | 0.58 | 227% (20 μM) | 9.37 | 17.5 | – | – |
| COC(=O)CC[C@@H]1N=C(c2ccccc2Cl)c2cc(Br)ccc2-n2c(SC(C)=O)nnc21 [Compound 39, methyl (S)-3-(8-bromo-6-(2-chlorophenyl)-1-(acetylthio)-4H-benzo[f][1,2,4]triazolo[4,3-a][1,4]diazepin-4-yl)propionate] | 25.8 | 82.6 | 0.38 | 9.67 | 0.19 | 0.88 | 272% (20 μM) | 7.86 | 11.2 | – | – |
| COC(=O)CC[C@@H]1N=C(c2ccccc2F)c2cc(Br)ccc2-n2c(SCCN3CCOCC3)nnc21 [Compound 52, methyl (S)-3-(8-bromo-6-(2-fluorophenyl)-1-((2-morpholinoethyl)thio)-4H-benzo[f][1,2,4]triazolo[4,3-a][1,4]diazepin-4-yl)propionate] | 21.6 | 80.1 | 0.33 | 7.22 | 0.94 | 0.47 | 293% (20 μM) | 6.25 | 16.2 | 5.38 | 1.3 |
| COC(=O)CC[C@@H]1N=C(c2ccccc2F)c2cc([N+](=O)[O-])ccc2-n2c(SCCN3CCOCC3)nnc21 [Compound 53, methyl (S)-3-(8-nitro-6-(2-fluorophenyl)-1-((2-morpholinoethyl)thio)-4H-benzo[f][1,2,4]triazolo[4,3-a][1,4]diazepin-4-yl)propionate] | 19.8 | 69.9 | 0.18 | 9.98 | 0.42 | 0.53 | 285% (20 μM) | 4.17 | 13.5 | – | – |
| COC(=O)CC[C@@H]1N=C(c2ccccc2F)c2cc([N+](=O)[O-])ccc2-n2c(SCCCN(C)C)nnc21 [Compound 59, methyl (S)-3-(8-nitro-1-((3-(dimethylamino)propyl)thio)-6-(2-fluorophenyl)-4H-benzo[f][1,2,4]triazolo[4,3-a][1,4]diazepin-4-yl)propionate] | 15 | 75.7 | 0.22 | 9.62 | 0.37 | 0.79 | 252% (20 μM) | 4.89 | 31.3 | – | – |
| COC(=O)CC[C@@H]1N=C(c2ccccc2Cl)c2cc(Br)ccc2-n2c(SCCN3CCOCC3)nnc21 [Compound 82, methyl (S)-3-(8-bromo-6-(2-chlorophenyl)-1-((2-morpholinoethyl)thio)-4H-benzo[f][1,2,4]triazolo[4,3-a][1,4]diazepin-4-yl)propionate] | 22.2 | 80.1 | 0.41 | – | – | 0.39 | 311% (20 μM) | 10.27 | 20.8 | 8.37 | 0.31 |
| COC(=O)CC[C@@H]1N=C(c2ccccc2Cl)c2cc([N+](=O)[O-])ccc2-n2c(SCCN3CCOCC3)nnc21 [Compound 83, methyl (S)-3-(8-nitro-6-(2-chlorophenyl)-1-((2-morpholinoethyl)thio)-4H-benzo[f][1,2,4]triazolo[4,3-a][1,4]diazepin-4-yl)propionate] | 16.8 | 77.3 | 0.16 | 14.58 | 0.19 | 0.57 | 287% (20 μM) | 28.66 | 16.3 | 7.89 | 0.28 |
| COC(=O)CC[C@@H]1N=C(c2ccccc2Cl)c2cc(Br)ccc2-n2c(SCCCN3CCN(CCO)CC3)nnc21 [Compound 97, methyl (S)-3-(8-bromo-6-(2-chlorophenyl)-1-((3-(4-(2-hydroxyethyl)piperazin-1-yl)propyl)thio)-4H-benzo[f][1,2,4]triazolo[4,3-a][1,4]diazepin-4-yl)propionate] | 36.6 | 84.6 | 0.18 | 17.07 | 0.93 | 0.84 | 238% (20 μM) | 6.43 | 17.4 | – | – |
